Laboratory results as given in US6632831B2, “Branched chain amino acid-dependent aminotransferase inhibitors and their use in the treatment of neurodegenerative diseases” (Pfizer Inc., priority 2001, dated 2003).
Where “and” joins values, the source holds several entries; their conditions need not be identical. Equal values may be shown once.

Columns and labels:
[1] = target: T1, human Branched Chain Amino Acid Aminotransferase cytosolic form (hBCATc) (Homo sapiens, UniProt P54687); experiment: In vitro coupled enzyme assay, hBCATc; assay type: biochemical; details: 37° C.; for IC50: 25 mM phosphate buffer pH 7.8, coupled glutamate dehydrogenase assay, read-out: hBCATc I50
T1 construct: inferred from purification on a Ni-charged chelating column with imidazole elution; made in house; host or cells: E. coli BL21(DE3)
T1 sequence (P54687 1-386): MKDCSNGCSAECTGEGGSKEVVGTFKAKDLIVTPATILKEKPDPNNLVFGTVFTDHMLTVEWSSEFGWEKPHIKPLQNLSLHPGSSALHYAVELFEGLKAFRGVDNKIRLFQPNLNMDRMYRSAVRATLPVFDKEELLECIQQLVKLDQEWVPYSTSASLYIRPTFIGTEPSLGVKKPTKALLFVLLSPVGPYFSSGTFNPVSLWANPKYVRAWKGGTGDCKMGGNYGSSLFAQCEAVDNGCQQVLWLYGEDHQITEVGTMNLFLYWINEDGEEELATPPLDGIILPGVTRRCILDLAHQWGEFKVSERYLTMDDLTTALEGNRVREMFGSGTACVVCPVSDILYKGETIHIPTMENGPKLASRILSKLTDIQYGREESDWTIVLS
Description: In vitro enzyme assay—human Branched Chain Amino Acid Aminotransferase cytosolic form (hBCATc) and mitochondrial form (hBCATm) were assayed at 37° C. in 25 mM phosphate buffer pH 7.8. In addition, 2 mM DTT and 12.5 mM EDTA were added to the assay mixture. A coupling enzyme assay was used to monitor the production of glutamate. The formation of NADH from NAD+at […] was followed on a 96-well plate Molecular Devices plate reader. The following components were used in this coupled assay: 4 mM ADP, 1 mM NAD+, 750 μM L-Leucine, 500 μM (α-ketoglutarate, 10 μM pyridoxal phosphate, 1 unit glutamate dehydrogenase, and 1.25 μg of the appropriate BCAT enzyme. Inhibitions by compounds were assayed by adding various concentrations to this coupled assay procedure as a DMSO stock up to a 5% v/v DMSO/buffer ratio. Data is shown in Table 1.
Enzyme Preparation—humanBCATc was expressed in BL21(DE3) cells. A growing culture of cells was induced with 1 mM IPTG at room temperature overnight. These cells were harvested by centrifugation at 10,000 g for 20 minutes. The supernatant was discarded, and the cells were stored at −80° C. until needed. The protein was purified by the following method. The cell paste was resuspended in extraction buffer (0.1 M phosphate, pH 8.0, with 0.01 M Tris-HCL and 5 mM TCEP and then lysed on a French Press at 1000 psi. The lysate was centrifuged at 10,000 g for 15 minutes, and the pellet was discarded. The supernatant was loaded onto a Hitrap Chelating column previously charged with 0.1 M NiSO4 and washed with 3 to 4 column volumes of extraction buffer. The column was then washed with 0.01 Tris, pH 7.5, 10% glycerol, 150 mM NaCl, 5 mM TCEP for two column volumes. The column was then further washed with two column volumes of 0.1 M phosphate, pH 6.0, 0.01 M Tris, 10% glycerol and 750 mM NaCl. Finally, the column was washed with two column volumes of the same buffer plus 50 mM imidazole. The BCAT enzyme was then eluted with the same buffer but with 350 mM imidazole. The eluant was then dialyzed overnight against 10 mM phosphate buffer pH 8.0, 10% glycerol, and 5 mM TCEP. The dialyzed protein was then loaded onto a Q-sepharose column and eluted using a salt gradient. Active fractions were collected and further purified on a Superose-12 column to yield pure BCAT protein.

Row | Compound | melting point [°C] | IC50 [1] | inhibition at 20 µM ([1]; @ 20 μM compound, pH 7.8 coupled assay, read-out: hBCATc Inhibit % @ 20 μM) [%]
1 | CC(C)(C)OC(=O)/C=C1\SC(Nc2c(Cl)cccc2Cl)=NC1=O (hydrate or solvate) [Example 3, [2-(2,6-Dichloro-phenylamino)-4-oxo-4H-thiazol-5-ylidene]-acetic Acid Tert-butyl Ester] | > 230 |  | 
2 | COC(=O)/C=C1\SC(Nc2ccccc2C)=NC1=O (hydrate or solvate) [Example 4, [2-(2-Methyl-phenylamino)-4-oxo-4H-thiazol-5-ylidene]-acetic Acid Methyl Ester] | 200.7 to 201.2 |  | 
3 | COC(=O)/C=C1\SC(Nc2ccc(Cl)cc2Cl)=NC1=O [Example 11, [2-(2,4-Dichloro-phenylamino)-4-oxo-4H-thiazol-5-ylidene]-acetic Acid Methyl Ester] | 211.6 to 212.3 | 30.1 µM | 
4 | CCOC(=O)/C=C1\SC(Nc2c(Cl)cccc2Cl)=NC1=O (hydrate or solvate) [Example 2, [2-(2,6-Dichloro-phenylamino)-4-oxo-4H-thiazol-5-ylidene]-acetic Acid Ethyl Ester] | 185 to 185.8 |  | 
5 | COC(=O)/C=C1\SC(Nc2cccc(Cl)c2Cl)=NC1=O [Example 13, [2-(2,3-Dichloro-phenylamino)-4-oxo-4H-thiazol-5-ylidene]-acetic Acid Methyl Ester] | 204 to 204.3 | 18.7 µM | 
6 | COC(=O)/C=C1\SC(Nc2c(Cl)cc(Cl)cc2Cl)=NC1=O [Example 14, [2-(2,4,6-Trichloro-phenylamino)-4-oxo-4H-thiazol-5-ylidene]-acetic Acid Methyl Ester] | 241.3 to 241.7 | 16.6 µM | 
7 | COC(=O)/C=C1\SC(Nc2cc(Cl)ccc2Cl)=NC1=O [Example 12, [2-(2,5-Dichloro-phenylamino)-4-oxo-4H-thiazol-5-ylidene]-acetic Acid Methyl Ester] | 198.8 to 199.4 | 27.6 µM | 
8 | O=C(/C=C1\SC(Nc2c(Cl)cccc2Cl)=NC1=O)NCc1ccccc1 [Example 9, [2-(2,6-Dichloro-phenylamino)-4-oxo-4H-thiazol-5-ylidene]-N-benzyl-acetamide] | 204.8 to 205.6 | 33 µM and 24 µM | 
9 | CCNC(=O)/C=C1\SC(Nc2c(Cl)cccc2Cl)=NC1=O (hydrate or solvate) [Example 7, [2-(2,6-Dichloro-phenylamino)-4-oxo-4H-thiazol-5-ylidene]-N-ethyl-acetamide] | > 250 |  | 
10 | COC(=O)/C=C1\SC(Nc2c(Cl)cccc2Cl)=NC1=O (hydrate or solvate) [Example 1, [2-(2,6-Dichloro-phenylamino)-4-oxo-4H-thiazol-5-ylidene]-acetic Acid Methyl Ester] | 189.1 to 189.7 |  | 
11 | CCCNC(=O)/C=C1\SC(Nc2c(Cl)cccc2Cl)=NC1=O (hydrate or solvate) [Example 8, [2-(2,6-Dichloro-phenylamino)-4-oxo-4H-thiazol-5-ylidene]-N-propyl-acetamide] | > 230 |  | 
12 | CONC(=O)/C=C1\SC(Nc2c(Cl)cccc2Cl)=NC1=O (hydrate or solvate) [Example 10, [2-(2,6-Dichloro-phenylamino)-4-oxo-4H-thiazol-5-ylidene]-N-methoxy-acetamide] | 204.8 to 205.6 |  | 
13 | CNC(=O)/C=C1\SC(Nc2c(Cl)cccc2Cl)=NC1=O (hydrate or solvate) [Example 6, [2-(2,6-Dichloro-phenylamino)-4-oxo-4H-thiazol-5-ylidene]-N-methyl-acetamide] | > 230 |  | 
14 | O=C(O)/C=C1\SC(Nc2c(Cl)cccc2Cl)=NC1=O [Example 5, [2-(2,6-Dichloro-phenylamino)-4-oxo-4H-thiazol-5-ylidene]-acetic Acid] | > 230 | 18.6 µM and 13.1 µM | 
15 | COC(=O)/C=C1\SC(Nc2ccccc2Cl)=NC1=O [Example 15, [2-(2-Chloro-phenylamino)-4-oxo-4H-thiazol-5-ylidene]-acetic Acid Methyl Ester] | 194 to 194.6 | 19.5 µM | 
16 | O=C(/C=C1\SC(Nc2c(Cl)cccc2Cl)=NC1=O)NC1CCCCCC1 [Example 39, N-Cycloheptyl-2-[2-(2,6-dichloro-phenylamino)-4-oxo-4H-thiazol-5-ylidene]-acetamide] |  |  | 39
